Reference: article PMC10934121 (Molecules, 2024)
“And” between values parts separate entries of the source, which are not always exact repeats. Equal values may be shown once.

Tests used:
[1] = Plasma and brain concentration after oral administration of 3-hydroxyindolin-2-one; format: in vivo, C57BL/6J mice; conditions: 30 min after oral 3-hydroxyindolin-2-one 100, 200, 400 mg/kg
Procedure: (§1) All animal testing was performed with the European Communities Council Directive 2010/63/E.U. guidelines and approved by the Lithuania State Food and Veterinary Service, Animal Ethics Experimentation Committee (project G2-244). C57BL/6JRj mouse line animals (Janvier Labs, Le Genest-Saint-Isle, France) were used for all procedures. Before the experiment, animals were housed in groups under a 12 h light–dark cycle with a temperature of 21 ± 1 °C and humidity of 55 ± 10%. The experiment was conducted in 3 major phases (Figure 8).
Animals were starved for 1 h before the administration of the compounds. […] The animals then were housed in single cages and culled at different time points (30 min, 1 h, 2 h, 4 h, and 6 h). The organs were immediately extracted on ice and stored at –80 °C until further analysis. The inside of the intestines was cleaned before freezing. 3-Hydroxyindolin-2-one was administered by gavage at three doses (100 mg/kg, 200 mg/kg, and 400 mg/kg). The animals were culled 30 min after the administration. The organs were immediately removed on ice and stored at –80 °C until further analysis. […]
(§2) Organ extracts were analyzed by HPLC/MS as described in [20]. […] Limits of detection (LOD) for HPLC determination of the metabolite concentrations were determined by using different concentrations of standard solutions and following the same extraction protocol as described above.

acetylcholinesterase = conditions: cited from earlier work
monoamine oxidase = conditions: cited from earlier work
[2] = Time-resolved concentrations of indole and its metabolites in organs after oral administration of indole (HPLC/MS); format: in vivo, C57BL/6J mice; conditions: for Tmax: C57BL/6JRj, mouse, in vivo, 350 mg/kg
Procedure: as §1
Animals were starved for 1 h before the administration of the compounds. […] The animals then were housed in single cages and culled at different time points (30 min, 1 h, 2 h, 4 h, and 6 h). The organs were immediately extracted on ice and stored at –80 °C until further analysis. The inside of the intestines was cleaned before freezing. 3-Hydroxyindolin-2-one was administered by gavage at three doses (100 mg/kg, 200 mg/kg, and 400 mg/kg). The animals were culled 30 min after the administration. The organs were immediately removed on ice and stored at –80 °C until further analysis.
Organ samples were thawed, weighed, and homogenized (3 cycles ×30 s, using Benchmark the BeadBug 6 homogenizer, Sayreville, NJ, USA) in 1 mL of deionized water containing different concentrations of 1-methylindolin-2-one as an internal standard. Plasma samples were not homogenized and were subjected to liquid–liquid extraction directly. Organ homogenates were centrifuged at 16,000× g for 10 min at 4 °C. The supernatants were extracted three times with equal amounts of ethyl acetate. All three extracts were pooled and evaporated under reduced pressure (AES2000 SpeedVAC, Savant, Thermo Fisher Scientific, Waltham, MA, USA). The dried material was dissolved in 100 μL 50% methanol by vigorous shaking and centrifugation at 16,000× g for 5 min. The supernatant was subjected to HPLC/MS analysis.
as §2

[3] = Detection of 13C isotope-carrying metabolites after oral stable isotope-carrying indole (HPLC/MS); format: in vivo, C57BL/6J mice; conditions: 2 h after gavage of 13C (C2) indole; N = 1
Procedure: Since indole is produced endogenously by the gut microbiota from dietary compounds, it is possible that the metabolites identified in the organ extracts were produced from endogenous indole or other precursors rather than the exogenously supplied indole. […] We detected heavier isotopes of indolin-2-one and 3-hydroxyindolin-2-one in the brain, liver, cecum, small intestine, and colon 2 h after administration (Figure 4, Figures S1–S15). This confirmed the previous experiment and provided direct evidence that indole in the gut is a substrate for several metabolites that spread throughout the body and even to the brain.
as §1, with “The experiment was conducted in 3 major phases (Figure 8).” left out
as §2

CYP1A2 = assay: Gene expression by real-time PCR after indole administration; format: in vivo, C57BL/6J mice; conditions: liver, 1 h after indole administration, increasing with time
Procedure: as §1
(§3) The total RNA was isolated from the mice’s brain medulla and liver tissues using the TRIzol™ Plus RNA Purification Kit according to the manufacturer’s protocol (Thermo Fisher Scientific, Vilnius, Lithuania). To remove gDNA, samples were treated with dsDNase reagent (Thermo Fisher Scientific, Lithuania). cDNA was synthesized using a High-Capacity cDNA Reverse Transcription kit (Thermo Fisher Scientific, Lithuania) according to the manufacturer’s instructions. The expression of CYP1A2, CYP2E1, CYP2A5, CYP2C29, CBR1, CBR3, and GAPDH was analyzed by the QuantStudio™ 3 Real-Time PCR System (Thermo Fisher Scientific, Lithuania), using SYBR™ Green PCR Master Mix (Thermo Fisher Scientific, Lithuania). The following primer sequences were used: Cyp2c29_FW (5′-[…]-3′), Cyp2c29_RV (5′-[…]-3′), Cyp2a5_FW (5′-[…]-3′), Cyp2a5_RV (5′-[…]-3′), Cbr3_FW (5′-[…]-3′), Cbr3_RV (5′-[…]-3′), Cyp1a2_FW (5′-[…]-3′), Cyp1a2_RV (5′-[…]-3′), Cyp2e1_FW (5′-[…]-3′), Cyp2e1_RV (5′-[…]-3′), GAPDH_FW (5′-[…]-3′), GAPDH_RV (5′-[…]-3′), Cbr1_FW (5′-[…]-3′), Cbr1_RV (5′-[…]-3′). All samples were run in duplicates. Ct values were normalized to GAPDH using the delta–delta Ct method.

CBR3 = assay: as above; format: in vivo, C57BL/6J mice; conditions: for CBR3 expression increase: liver
Procedure: as §1, §3

CBR1 = assay: as above; format: in vivo, C57BL/6J mice
Procedure: as §1, §3

CYP2E1 = assay: as above; format: in vivo, C57BL/6J mice; conditions: liver
Procedure: as §1, §3

[4] = set-up: method as in PMID 9572285; conditions: cited from earlier work
[5] = cited from earlier work
[6] = 30 min after oral indole 350 mg/kg, individual mice (samples 1-2)
[7] = 30 min after oral indole 350 mg/kg, individual mice (samples 1-3)
[8] = 1 h after oral indole 350 mg/kg, individual mice (samples 1-3)
[9] = 2 h after oral indole 350 mg/kg, individual mice (samples 1-3)
[10] = 4 h after oral indole 350 mg/kg, individual mice (samples 1-3)
[11] = 6 h after oral indole 350 mg/kg, individual mice (samples 1-3)

## O=C1Nc2ccccc2C1O (stereo not shown) [3-hydroxyindolin-2-one, 3-hydroxy-1,3-dihydro-2H-indol-2-one]
[1]
  Concentration in brain: significant dose-dependent increase
  Concentration in plasma: significant dose-dependent increase
acetylcholinesterase
  Inhibitory effect on acetylcholinesterase compared to isatin: lower inhibitory effect
Monoamine oxidase
  Inhibitory effect on monoamine oxidase compared to isatin: lower inhibitory effect
[2]; [6]
  Concentration in cecum extracts: 22.14 nmol/g and 29.66 nmol/g
[2]; [7]
  Concentration in brain extracts: 54.77 nmol/g and 76.19 nmol/g and 69.87 nmol/g
  Concentration in large intestine (LI) extracts: 45.32 nmol/g and 75.39 nmol/g and 41.71 nmol/g
  Concentration in liver extracts: 7.43 nmol/g and 14.12 nmol/g and 15.72 nmol/g
  Concentration in plasma: BDL
  Concentration in small intestine (SI) extracts: 76.51 nmol/g and 53.50 nmol/g and 66.77 nmol/g
[2]; [8]
  Concentration in brain extracts: 65.73 nmol/g and 37.10 nmol/g and 68.54 nmol/g
  Concentration in cecum extracts: 18.19 nmol/g and 12.89 nmol/g and 17.05 nmol/g
  Concentration in large intestine (LI) extracts: 30.45 nmol/g and 6.37 nmol/g and 58.67 nmol/g
  Concentration in liver extracts: 64.90 nmol/g and 46.68 nmol/g and 86.61 nmol/g
  Concentration in plasma: BDL
  Concentration in small intestine (SI) extracts: 52.78 nmol/g and 4.63 nmol/g and BDL
[2]; [9]
  Concentration in brain extracts: BDL
  Concentration in cecum extracts: 7.06 nmol/g and 19.80 nmol/g and 10.80 nmol/g
  Concentration in large intestine (LI) extracts: BDL
  Concentration in liver extracts: 63.22 nmol/g and BDL
  Concentration in plasma: BDL
  Concentration in small intestine (SI) extracts: BDL (2×) and 48.78 nmol/g
[2]; [10]
  Concentration in brain extracts: BDL
  Concentration in cecum extracts: 21.81 nmol/g and 17.61 nmol/g and BDL
  Concentration in large intestine (LI) extracts: BDL
  Concentration in liver extracts: 18.61 nmol/g and BDL and 6.72 nmol/g
  Concentration in plasma: BDL (2×) and 15.47 nmol/g
  Concentration in small intestine (SI) extracts: BDL (2×) and 24.91 nmol/g
[2]; [11]
  Concentration in brain extracts: BDL
  Concentration in cecum extracts: 35.22 nmol/g and BDL and 13.51 nmol/g
  Concentration in large intestine (LI) extracts: 18.68 nmol/g and BDL and 33.36 nmol/g
  Concentration in liver extracts: BDL
  Concentration in plasma: BDL
  Concentration in small intestine (SI) extracts: BDL
[2]; after oral indole 350 mg/kg
  Presence in the brain: found in the brain
  Time of highest concentrations in liver, small intestine and brain: 1 h
[3]
  Heavier (13C) isotope of metabolite in brain, liver, cecum, small intestine and colon: detected

## c1ccc2[nH]ccc2c1 [Indole, indole]
CYP1A2
  CYP1A2 expression: significant increase
CBR3; brain, 2 h after indole administration
  CBR3 expression: slight increase
CBR3; 4 h after indole administration
  CBR3 expression increase: 12 times
CBR3; 6 h after indole administration
  CBR3 expression increase: 8 times
CBR1; liver and brain, any time point after indole administration
  CBR1 expression: unaffected
CBR1; liver, after indole administration
  CBR1 expression level: not altered
CYP2E1
  CYP2E1 expression: mainly unchanged
[2]; [6]
  Concentration in cecum extracts: 37.54 nmol/g and 22.73 nmol/g
[2]; [7]
  Concentration in brain extracts: 59.54 nmol/g and 147.88 nmol/g and 22.10 nmol/g
  Concentration in large intestine (LI) extracts: 119.49 nmol/g and 137.49 nmol/g and 66.42 nmol/g
  Concentration in liver extracts: 156.1 nmol/g and 54.56 nmol/g and 3.21 nmol/g
  Concentration in plasma: 170.99 nmol/g and 96.67 nmol/g and 15.31 nmol/g
[2]; [8]
  Concentration in brain extracts: 4.75 nmol/g and BDL and 5.84 nmol/g
  Concentration in cecum extracts: 29.05 nmol/g and 32.96 nmol/g and 48.99 nmol/g
  Concentration in large intestine (LI) extracts: 4.64 nmol/g and 2.89 nmol/g and 70.74 nmol/g
  Concentration in liver extracts: BDL
  Concentration in plasma: 6.73 nmol/g and 0.00 nmol/g and 10.19 nmol/g
[2]; [9]
  Concentration in brain extracts: BDL
  Concentration in cecum extracts: 7.99 nmol/g and 0.00 nmol/g and 24.86 nmol/g
  Concentration in large intestine (LI) extracts: 2.89 nmol/g and 7.18 nmol/g and 278.22 nmol/g
  Concentration in liver extracts: 67.36 nmol/g and 3.05 nmol/g and 414.1 nmol/g
  Concentration in plasma: 0.00 nmol/g (2×) and 5.68 nmol/g
[2]; [10]
  Concentration in brain extracts: BDL and 1.41 nmol/g
  Concentration in cecum extracts: 0.00 nmol/g and 12.47 nmol/g
  Concentration in large intestine (LI) extracts: 30.39 nmol/g and 11.51 nmol/g and 34.93 nmol/g
  Concentration in liver extracts: 8.76 nmol/g and 0.00 nmol/g and 97.7 nmol/g
  Concentration in plasma: 0.00 nmol/g (2×) and 3.97 nmol/g
[2]; [11]
  Concentration in brain extracts: BDL
  Concentration in cecum extracts: 0.00 nmol/g
  Concentration in large intestine (LI) extracts: 171.66 nmol/g and 231.01 nmol/g and 24.29 nmol/g
  Concentration in liver extracts: 80.7 nmol/g and 58.6 nmol/g and BDL
  Concentration in plasma: 0.00 nmol/g
[2]; po, read-out: Time of peak plasma concentration (converted)
  Tmax: 30 min
[2]; after oral indole 350 mg/kg
  Presence in the brain: found in the brain
[2]; liver, 2 h after ingestion of indole 350 mg/kg
  Highest indole concentration (liver): 414.15 nmol/g
[2]; oral indole 350 mg/kg
  Time within which indole is metabolized: up to 6 h

## O=C1Cc2ccccc2N1 [Indolin-2-one, 1,3-dihydro-2H-indol-2-one]
[4]; 10 mg/kg
  Effect of low doses in the blood: reduced blood pressure and mild sedation
[4]; 100 mg/kg
  Effect of high doses: coma and death
[5]
  Blood–brain barrier crossing: cross the blood–brain barrier
[2]; po
  Tmax: 30 min
[3]
  Heavier (13C) isotope of metabolite in brain, liver, cecum, small intestine and colon: detected

## O=C1Nc2ccccc2C1=O [Isatin, 3-hydroxy-2H-indol-2-one]
[5]; after systemic administration
  Isatin in the brain: up to 5 nmol/g
[5]
  Blood–brain barrier crossing: cross the blood–brain barrier
[2]
  Tmax: 360 min
[2]; po
  Tmax: 30 min
